Data taken from paper PMC3601441 (Journal of medicinal chemistry, 2011).
“And” between values parts separate entries of the source, which are not always exact repeats. Equal entries are not always repeated. Structures can show the parent of a compound that is named as a salt. Where two headings read alike, the source gives them in different places.

How the values were obtained:
[1] = tested on: P. falciparum; details: read-out: EC50 against P. falciparum; ref 8j; cited from earlier work
[2] = target: M. tuberculosis DXR (MtDXR) (Mycobacterium tuberculosis, UniProt P9WNS1); assay type: biochemical; details: for times less active against MtDXR than 1 and 2: compared with parent compounds 1 and 2; for Ki: read-out: MtDXR Ki
Sequence of M. tuberculosis DXR (MtDXR) (P9WNS1 whole entry, looked up): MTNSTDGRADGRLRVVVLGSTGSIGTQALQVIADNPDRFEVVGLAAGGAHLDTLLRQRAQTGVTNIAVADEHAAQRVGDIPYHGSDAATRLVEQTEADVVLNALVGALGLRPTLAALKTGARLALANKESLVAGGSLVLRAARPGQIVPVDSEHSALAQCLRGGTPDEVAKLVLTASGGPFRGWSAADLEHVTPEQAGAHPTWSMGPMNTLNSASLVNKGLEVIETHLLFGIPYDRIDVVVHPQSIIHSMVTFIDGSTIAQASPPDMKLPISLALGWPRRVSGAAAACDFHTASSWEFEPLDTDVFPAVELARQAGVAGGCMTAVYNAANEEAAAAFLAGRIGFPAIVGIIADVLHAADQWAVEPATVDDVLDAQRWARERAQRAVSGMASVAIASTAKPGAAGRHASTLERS

[3] = background statement, no reference given; cited from earlier work
[4] = tested on: MtDXR; details: read-out: MtDXR IC50; using […] of Mn2+; cited from earlier work
[5] = tested on: DXR; details: read-out: DXR IC50; ref 9b; cited from earlier work
[6] = target: E. coli DXR (EcDXR) (Escherichia coli, UniProt P45568); assay: biochemical; assay type: biochemical
Sequence of E. coli DXR (EcDXR) (P45568 whole entry): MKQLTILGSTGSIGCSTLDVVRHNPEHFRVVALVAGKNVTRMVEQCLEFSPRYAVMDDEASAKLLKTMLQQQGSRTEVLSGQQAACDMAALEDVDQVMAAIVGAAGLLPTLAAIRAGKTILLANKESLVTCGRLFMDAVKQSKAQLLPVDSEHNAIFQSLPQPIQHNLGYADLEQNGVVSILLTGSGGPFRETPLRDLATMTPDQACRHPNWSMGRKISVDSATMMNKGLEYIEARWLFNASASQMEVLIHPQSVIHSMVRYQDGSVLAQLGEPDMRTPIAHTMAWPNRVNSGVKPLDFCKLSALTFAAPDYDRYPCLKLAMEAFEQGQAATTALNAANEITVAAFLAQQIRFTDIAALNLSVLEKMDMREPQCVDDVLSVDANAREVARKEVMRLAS

[7] = tested on: EcDXR; details: read-out: Km of substrate for EcDXR; cited from earlier work
[8] = tested on: MtDXR; details: read-out: Km of substrate for MtDXR; ref 2d; cited from earlier work

SMILES: O=CN(O)CCCP(=O)(O)O [Compound 1, Fosmidomycin]
- EC50 [1]: 1.1 µM
- times weaker binding / less active against MtDXR than EcDXR ([2]; Ki MtDXR vs Ki EcDXR): ~ 5 × and 5 ×
- half-life in plasma [3]: ~ 1 h
- oral availability [3]: poor oral availability
- IC50 [4]: 0.08 µM

SMILES: CC(=O)N(O)CCCP(=O)(O)O [Compound 2, FR900098, reference compound]
- times weaker binding / less active against MtDXR than EcDXR [2]: ~ 6 ×

SMILES: O=CN(O)CCC(c1ccc(Cl)c(Cl)c1)P(=O)(O)O (stereo not shown) [Compound 3, reference compound]
- EC50 [1]: 0.09 µM
- affinity loss to MtDXR compared to EcDXR ([2]; Ki MtDXR vs Ki EcDXR): 21 fold
- times less active against MtDXR than 1 and 2 [2]: ~ 10 ×

SMILES: CC(=O)N(O)CCC(c1ccc(Cl)c(Cl)c1)P(=O)(O)O (stereo not shown) [Compound 4, reference compound]
- EC50 [1]: 0.25 µM
- affinity loss to MtDXR compared to EcDXR ([2]; Ki MtDXR vs Ki EcDXR): 42 fold
- times less active against MtDXR than 1 and 2 [2]: ~ 10 × and 10 ×

SMILES: O=P(O)(O)C(Nc1ccc(Cl)cn1)P(=O)(O)O [Compound 6, reference compound]
- times weaker binding / less active against MtDXR than EcDXR [2]: > 5 ×
- Ki [2]: > 100 µM

SMILES: O=c1ccc(-c2ccccc2)cn1O [Compound 7, reference compound]
- IC50 [5]: 1.4 µM
- times weaker binding / less active against MtDXR than EcDXR ([2]; Ki MtDXR vs Ki EcDXR): 31 ×

SMILES: O=P(O)(O)Cc1ccc(-c2ccccc2)cn1 [Compound 9, 5-phenylpyridin-2-ylmethylphosphonic acid]
- times as potent as 8 against EcDXR [6]: 5 ×
- affinity loss to MtDXR compared to EcDXR ([2]; Ki MtDXR vs Ki EcDXR): 7 fold

SMILES: O=P(O)(O)c1ccccn1 [Compound 11, Pyridin-2-ylphosphonic acid disodium salt]
- Ki [6]: > 49.7 µM
- Ki ([6]; read-out: EcDXR Ki): > 100 µM
- inhibitory activity against EcDXR (in words) ([6]; up to 100 μM): essentially no activity
- Ki [2]: > 100 µM

SMILES: O=P(O)(O)CCc1ccccn1 [Compound 12, 2-(Pyridin-2-yl)ethylphosphonic acid disodium salt]
- times less potent than 8 against EcDXR ([6]; Ki ratio to compound 8): ~ 8 ×
- Ki [2]: > 100 µM

SMILES: O=P(O)(O)CCCc1ccccn1 [Compound 13, 3-(Pyridin-2-yl)propylphosphonic acid disodium salt]
- times less potent than 8 against EcDXR ([6]; Ki ratio to compound 8): ~4 ×
- Ki [2]: > 100 µM

SMILES: O=P(O)(O)Cc1cccnc1 [Compound 14]
- Ki [2]: > 100 µM

SMILES: O=P(O)(O)Cc1cnccn1 [Compound 16, Pyrazin-2-ylmethylphosphonic acid disodium salt]
- Ki [2]: > 100 µM

SMILES: O=P(O)(O)c1ccccc1 [Compound 18, Phenylphosphonic acid disodium salt]
- Ki [6]: > 49.7 µM
- Ki ([6]; read-out: EcDXR Ki): > 100 µM
- Ki [2]: > 100 µM

SMILES: O=P(O)(O)Cc1ccccc1 [Compound 19, Benzylphosphonic acid disodium salt]
- Ki [6]: > 49.7 µM
- Ki ([6]; read-out: EcDXR Ki): > 100 µM
- Ki [2]: > 100 µM

SMILES: O=P(O)(O)CCc1ccccc1 [Compound 20, 2-Phenylethylphosphonic acid disodium salt]
- Ki [6]: > 49.7 µM
- Ki ([6]; read-out: EcDXR Ki): > 100 µM
- Ki [2]: > 100 µM

SMILES: O=P(O)(O)Cc1ccc(Cl)c(Cl)c1 [Compound 21]
- Ki [6]: > 49.7 µM
- Ki ([6]; read-out: EcDXR Ki): > 100 µM
- inhibitory activity against EcDXR (in words) ([6]; up to 100 μM): essentially no activity
- inhibitory activity against MtDXR (in words) [2]: essentially no activity
- Ki [2]: > 100 µM

SMILES: O=P(O)(O)CCc1ccccc1O [Compound 22, 2-(2-Hydroxyphenyl)ethylphosphonic acid disodium salt]
- Ki [6]: > 49.7 µM
- Ki ([6]; read-out: EcDXR Ki): > 100 µM
- inhibitory activity against EcDXR (in words) ([6]; up to 100 μM): no inhibitory activity
- Ki [2]: > 100 µM

SMILES: O=P(O)(O)Cc1cccc(O)c1O [Compound 23]
- Ki [6]: > 49.7 µM
- Ki ([6]; read-out: EcDXR Ki): > 100 µM
- inhibitory activity against EcDXR (in words) ([6]; up to 100 μM): no inhibitory activity
- Ki [2]: > 100 µM

SMILES: O=c1ccc(CP(=O)(O)O)cn1O [Compound 24, 5-(1-Hydroxy-pyridin-2-one)methylphosphonic acid disodium salt]
- Ki [6]: > 49.7 µM
- inhibitory activity against EcDXR (in words) ([6]; up to 100 μM): essentially inactive

SMILES: O=c1cccc(CCP(=O)(O)O)[nH]1 [Compound 25, 2-(Pyridin-2-one-6-yl)ethylphosphonic acid disodium salt]
- Ki [6]: > 49.7 µM
- inhibitory activity against EcDXR (in words) ([6]; up to 100 μM): essentially inactive

SMILES: O=P(O)(O)Cc1cc(-c2ccc(F)cc2)ccn1 [Compound 28, 4-(4-Fluorophenyl)pyridin-2-ylmethylphosphonic acid disodium salt]
- Ki [2]: > 100 µM

SMILES: O=P(O)(O)Cc1ccc(O)cn1 [Compound 30, (5-Hydroxylpyridin-2-yl)methylphosphonic acid disodium salt]
- times as potent as 8 against EcDXR ([6]; Ki ratio to compound 8): ~ 3 ×

SMILES: O=P(O)(O)Cc1ccc(OCc2ccccc2)cn1 [Compound 31, (5-Benzyloxypyridin-2-yl)methylphosphonic acid disodium salt]
- Ki [6]: > 49.7 µM
- inhibitory activity against EcDXR (in words) [6]: inactive
- Ki ([6]; read-out: EcDXR Ki): > 100 µM
- Ki [2]: > 100 µM

SMILES: O=P(O)(O)Cc1cccc(-c2ccccc2)n1 [Compound 33, (6-Phenylpyridin-2-yl)methylphosphonic acid disodium salt]
- Ki [2]: > 100 µM

SMILES: O=P(O)(O)Cc1ccc(-c2ccc(Cl)cc2)cn1 [Compound 35, 5-(4-Chlorophenyl)pyridin-2-ylmethylphosphonic acid disodium salt]
- Ki [2]: > 100 µM

SMILES: Cc1ccc(-c2ccc(CP(=O)(O)O)nc2)cc1 [Compound 36, 5-(4-Methylphenyl)pyridin-2-ylmethylphosphonic acid disodium salt]
- Ki [2]: > 100 µM

SMILES: COc1cccc(-c2ccc(CP(=O)(O)O)nc2)c1 [Compound 37, 5-(3-Methoxyphenyl)pyridin-2-ylmethylphosphonic acid disodium salt]
- Ki [2]: > 100 µM

SMILES: O=C(O)c1ccccn1 [Compound 39]
- Ki [6]: > 49.7 µM
- Ki ([6]; read-out: EcDXR Ki): > 100 µM
- Ki [2]: > 100 µM

SMILES: O=C(O)Cc1ccccn1 [Compound 40]
- Ki [6]: > 49.7 µM
- Ki ([6]; read-out: EcDXR Ki): > 100 µM
- Ki [2]: > 100 µM

SMILES: O=C(O)Cc1cccnc1 [Compound 41]
- Ki [6]: > 49.7 µM
- Ki ([6]; read-out: EcDXR Ki): > 100 µM
- Ki [2]: > 100 µM

SMILES: O=C(O)Cc1ccncc1 [Compound 42]
- Ki [6]: > 49.7 µM
- Ki ([6]; read-out: EcDXR Ki): > 100 µM
- Ki [2]: > 100 µM

SMILES: O=C(NO)c1ccccn1 [Compound 43, N-hydroxy-pyridine-2-carboxamide]
- Ki [6]: > 49.7 µM

SMILES: O=C(Cc1ccccn1)NO [Compound 44, N-hydroxy-(pyridin-2-yl)acetamide]
- Ki [6]: > 49.7 µM

SMILES: O=C(O)c1ccc(-c2ccccc2)cn1 [Compound 45, 5-Phenylpyridine-2-carboxylic acid]
- Ki [6]: > 49.7 µM
- Ki ([6]; read-out: EcDXR Ki): > 100 µM
- Ki [2]: > 100 µM

SMILES: O=C(O)Cc1ccc(-c2ccccc2)cn1 [Compound 46, (5-Phenylpyridin-2-yl)acetic acid]
- Ki [6]: > 49.7 µM

SMILES: O=C(Cc1ccc(-c2ccccc2)cn1)NO [Compound 47, N-hydroxy-(5-phenylpyridin-2-yl)acetamide]
- Ki [6]: > 49.7 µM

SMILES: O=S(=O)(O)Cc1ccc(-c2ccccc2)cn1 [Compound 48, 5-Phenylpyridin-2-ylmethanesulfonic acid sodium salt]
- Ki [6]: > 49.7 µM
- Ki ([6]; read-out: EcDXR Ki): > 100 µM
- Ki [2]: > 100 µM

SMILES: CC(=O)[C@@H](O)[C@H](O)COP(=O)(O)O [DXP, 1-deoxy-D-xylulose-5-phosphate]
- Km [7]: 99 µM
- Km [8]: 47.1 µM
